Assay results as given in ChEMBL document CHEMBL4715829, “Heterodimeric Rifampicin-Tobramycin conjugates break intrinsic resistance of Pseudomonas aeruginosa to doxycycline and chloramphenicol in vitro and in a Galleria mellonella in vivo model” (Eur J Med Chem, 2019).
Values after ≈ are worked out from the molar mass of the structure shown.

Tests used:
Staphylococcus aureus [1] = assay: Antibacterial activity against methicillin-resistance Staphylococcus aureus ATCC 33592 assessed as reduction in bacterial growth incubated for 18 hrs by broth microdilution assay; format: functional
Escherichia coli [2] = assay: Antibacterial activity against gentamicin, tobramycin, ciprofloxacin-resistant Escherichia coli ATCC 97615 harboring aac(3')IIa gene assessed as reduction in bacterial growth incubated for 18 hrs by broth microdilution assay; format: functional
Enterococcus faecalis = assay: Antibacterial activity against Enterococcus faecalis ATCC 29212 assessed as reduction in bacterial growth incubated for 18 hrs by broth microdilution assay; format: functional
Pseudomonas aeruginosa [3] = assay: Antibacterial activity against Pseudomonas aeruginosa PAO1 assessed as reduction in bacterial growth by measuring tigecycline MIC at <=10 uM in presence of tigecycline incubated for 18 hrs by broth microdilution assay based checkerboard assay (reference value: 4 microg/ml); format: functional; settings: dose microM <=10
Pseudomonas aeruginosa [4] = assay: Antibacterial activity against Pseudomonas aeruginosa PAO1 assessed as reduction in bacterial growth by measuring rifampicin MIC at <=[…] uM in presence of rifampicin incubated for 18 hrs by broth microdilution assay based checkerboard assay (reference value: […] microg/ml); format: functional; settings: dose microM <=10
Pseudomonas aeruginosa [5] = assay: Antibacterial activity against Pseudomonas aeruginosa 114228 assessed as reduction in bacterial growth incubated for 18 hrs by broth microdilution assay; format: functional
Staphylococcus aureus [6] = assay: Antibacterial activity against Staphylococcus aureus ATCC 29213 assessed as reduction in bacterial growth incubated for 18 hrs by broth microdilution assay; format: functional
Pseudomonas aeruginosa [7] = assay: Antibacterial activity against Pseudomonas aeruginosa PAO1 assessed as fractional inhibitory concentration index in presence of Linezolid incubated for 18 hrs by broth microdilution assay based checkerboard assay; format: functional
Pseudomonas aeruginosa [8] = assay: Antibacterial activity against Pseudomonas aeruginosa PAO1 assessed as reduction in bacterial growth by measuring aztreonam MIC at <=10 uM in presence of aztreonam incubated for 18 hrs by broth microdilution assay based checkerboard assay (reference value: 4 microg/ml); format: functional; settings: dose microM <=10
[9] = test system: Staphylococcus epidermidis; assay: Antibacterial activity against methicillin-susceptible Staphylococcus epidermidis CANWARD 81388 assessed as reduction in bacterial growth incubated for 18 hrs by broth microdilution assay; format: functional
Pseudomonas aeruginosa [10] = assay: Antibacterial activity against Pseudomonas aeruginosa PAO1 assessed as reduction in bacterial growth by measuring vancomycin MIC at <=10 uM in presence of vancomycin incubated for 18 hrs by broth microdilution assay based checkerboard assay (reference value: 256 microg/ml); format: functional; settings: dose microM <=10
Pseudomonas aeruginosa [11] = assay: Antibacterial activity against Pseudomonas aeruginosa 101885 assessed as reduction in bacterial growth incubated for 18 hrs by broth microdilution assay; format: functional
[12] = Cytotoxicity against human HEK293 cells assessed as cell viability at 50 uM incubated for 48 hrs by prestoblue assay; format: cell-based; settings: read-out: Activity
[13] = Cytotoxicity against human HEK293 cells assessed as cell viability at <10 uM incubated for 48 hrs by prestoblue assay; format: cell-based; settings: read-out: Activity
Escherichia coli [14] = assay: Antibacterial activity against Escherichia coli CAN-ICU 63074 (AMK 32) assessed as reduction in bacterial growth incubated for 18 hrs by broth microdilution assay; format: functional
Streptococcus pneumoniae = assay: Antibacterial activity against Streptococcus pneumoniae ATCC 49619 assessed as reduction in bacterial growth incubated for 18 hrs by broth microdilution assay; format: functional
Pseudomonas aeruginosa [15] = assay: Antibacterial activity against Pseudomonas aeruginosa PAO1 assessed as reduction in bacterial growth by measuring ceftazidime MIC at <=10 uM in presence of ceftazidime incubated for 18 hrs by broth microdilution assay based checkerboard assay (reference value: 2 microg/ml); format: functional; settings: dose microM <=10
Escherichia coli [16] = assay: Antibacterial activity against Escherichia coli ATCC 25922 assessed as reduction in bacterial growth incubated for 18 hrs by broth microdilution assay; format: functional
Pseudomonas aeruginosa [17] = assay: Antibacterial activity against Pseudomonas aeruginosa PAO1 assessed as fractional inhibitory concentration index in presence of Ceftazidime incubated for 18 hrs by broth microdilution assay based checkerboard assay; format: functional
Pseudomonas aeruginosa [18] = assay: Antibacterial activity against Pseudomonas aeruginosa 101243 assessed as reduction in bacterial growth incubated for 18 hrs by broth microdilution assay; format: functional
Pseudomonas aeruginosa [19] = assay: Antibacterial activity against Pseudomonas aeruginosa PAO1 assessed as fractional inhibitory concentration index in presence of Meropenem incubated for 18 hrs by broth microdilution assay based checkerboard assay; format: functional
Pseudomonas aeruginosa [20] = assay: Antibacterial activity against Pseudomonas aeruginosa PAO1 assessed as fractional inhibitory concentration index in presence of Doxycycline incubated for 18 hrs by broth microdilution assay based checkerboard assay; format: functional
Pseudomonas aeruginosa [21] = assay: Antibacterial activity against Pseudomonas aeruginosa PAO1 assessed as fractional inhibitory concentration index in presence of Chloramphenicol incubated for 18 hrs by broth microdilution assay based checkerboard assay; format: functional
Pseudomonas aeruginosa [22] = assay: Antibacterial activity against Pseudomonas aeruginosa 750 harboring efflux mutant assessed as reduction in bacterial growth incubated for 18 hrs by broth microdilution assay; format: functional
Pseudomonas aeruginosa [23] = assay: Antibacterial activity against Pseudomonas aeruginosa 100036 assessed as reduction in bacterial growth incubated for 18 hrs by broth microdilution assay; format: functional
Pseudomonas aeruginosa [24] = assay: Antibacterial activity against Pseudomonas aeruginosa 91433 assessed as reduction in bacterial growth incubated for 18 hrs by broth microdilution assay; format: functional
Pseudomonas aeruginosa [25] = assay: Antibacterial activity against Pseudomonas aeruginosa PAO1 assessed as fractional inhibitory concentration index in presence of Moxifloxacin incubated for 18 hrs by broth microdilution assay based checkerboard assay; format: functional
[26] = Cytotoxicity against human HepG2 cells assessed as cell viability at 50 uM incubated for 48 hrs by prestoblue assay; format: cell-based; settings: read-out: Activity
Pseudomonas aeruginosa [27] = assay: Antibacterial activity against Pseudomonas aeruginosa 259-96918 assessed as reduction in bacterial growth incubated for 18 hrs by broth microdilution assay; format: functional
Pseudomonas aeruginosa [28] = assay: Antibacterial activity against wild type Pseudomonas aeruginosa PAO1 assessed as reduction in bacterial growth incubated for 18 hrs by broth microdilution assay; format: functional
Pseudomonas aeruginosa [29] = assay: Antibacterial activity against Pseudomonas aeruginosa PAO1 assessed as reduction in bacterial growth by measuring tobramycin MIC at <=10 uM in presence of tobramycin incubated for 18 hrs by broth microdilution assay based checkerboard assay (reference value: 1 microg/ml); format: functional; settings: dose microM <=10
Pseudomonas aeruginosa [30] = assay: Antibacterial activity against Pseudomonas aeruginosa PAO1 assessed as reduction in bacterial growth by measuring linezolid MIC at <=10 uM in presence of linezolid incubated for 18 hrs by broth microdilution assay based checkerboard assay (reference value: 1024 microg/ml); format: functional; settings: dose microM <=10
Pseudomonas aeruginosa [31] = assay: Antibacterial activity against Pseudomonas aeruginosa 259-96918 assessed as fractional inhibitory concentration index in presence of doxycycline incubated for 18 hrs by broth microdilution assay; format: functional
Pseudomonas aeruginosa [32] = assay: Antibacterial activity against Pseudomonas aeruginosa 260-97103 assessed as fractional inhibitory concentration index in presence of chloramphenicol incubated for 18 hrs by broth microdilution assay; format: functional
Pseudomonas aeruginosa [33] = assay: Antibacterial activity against Pseudomonas aeruginosa 259-96918 assessed as fractional inhibitory concentration index in presence of chloramphenicol incubated for 18 hrs by broth microdilution assay; format: functional
Pseudomonas aeruginosa [34] = assay: Antibacterial activity against Pseudomonas aeruginosa 100036 assessed as fractional inhibitory concentration index in presence of chloramphenicol incubated for 18 hrs by broth microdilution assay; format: functional
Pseudomonas aeruginosa [35] = assay: Antibacterial activity against Pseudomonas aeruginosa 262-101856 assessed as fractional inhibitory concentration index in presence of doxycycline incubated for 18 hrs by broth microdilution assay; format: functional
Pseudomonas aeruginosa [36] = assay: Antibacterial activity against Pseudomonas aeruginosa 260-97103 assessed as fractional inhibitory concentration index in presence of doxycycline incubated for 18 hrs by broth microdilution assay; format: functional

Row | Structure (SMILES) | MIC (Staphylococcus aureus [1]) [µg/mL] | MIC (Escherichia coli [2]) [µg/mL] | MIC (Enterococcus faecalis) [µg/mL] | MIC (Pseudomonas aeruginosa [5]) [µg/mL] | MIC (Staphylococcus aureus [6]) [µg/mL] | MIC [9] [µg/mL] | MIC (Pseudomonas aeruginosa [11]) [µg/mL] | MIC (Escherichia coli [14]) [µg/mL] | MIC (Streptococcus pneumoniae) [µg/mL] | MIC (Escherichia coli [16]) [µg/mL] | MIC (Pseudomonas aeruginosa [18]) [µg/mL] | MIC (Pseudomonas aeruginosa [22]) [µg/mL] | MIC (Pseudomonas aeruginosa [23]) [µg/mL] | MIC (Pseudomonas aeruginosa [24]) [µg/mL] | MIC (Pseudomonas aeruginosa [27]) [µg/mL] | MIC (Pseudomonas aeruginosa [28]) [µg/mL] | also measured
1 | CO[C@H]1/C=C/O[C@@]2(C)Oc3c(C)c(O)c4c(O)c(c(/C=N/N5CCN(Cc6cn(CCCCO[C@@H]7[C@@H](O[C@H]8O[C@H](CO)[C@@H](O)[C@H](N)[C@H]8O)[C@H](N)C[C@H](N)[C@H]7O[C@H]7O[C@H](CN)[C@@H](O)C[C@H]7N)nn6)CC5)c(O)c4c3C2=O)NC(=O)/C(C)=C\C=C\[C@H](C)[C@H](O)[C@@H](C)[C@@H](O)[C@@H](C)[C@H](OC(C)=O)[C@@H]1C.O=C(O)C(F)(F)F.O=C(O)C(F)(F)F.O=C(O)C(F)(F)F.O=C(O)C(F)(F)F.O=C(O)C(F)(F)F | > 32 | > 32 | > 32 | > 128 | 4 | 2 | 256 | > 32 | 1 | > 32 | 256 | > 256 | > 256 | > 128 | > 128 | 512 | MIC (Pseudomonas aeruginosa [3]): 2 µg/mL; MIC (Pseudomonas aeruginosa [4]): 4 µg/mL; fractional inhibitory concentration index (FICI) (Pseudomonas aeruginosa [7]): 1.03; MIC (Pseudomonas aeruginosa [8]): 4 µg/mL; MIC (Pseudomonas aeruginosa [10]): 256 µg/mL; viability at 48 h, 50 µM [12]: > 70%; viability at 48 h [13]: > 90%; MIC (Pseudomonas aeruginosa [15]): 2 µg/mL; fractional inhibitory concentration index (FICI) (Pseudomonas aeruginosa [17]): 1.03; fractional inhibitory concentration index (FICI) (Pseudomonas aeruginosa [19]): 1.03; fractional inhibitory concentration index (FICI) (Pseudomonas aeruginosa [20]): 0.09; fractional inhibitory concentration index (FICI) (Pseudomonas aeruginosa [21]): 0.28; fractional inhibitory concentration index (FICI) (Pseudomonas aeruginosa [25]): 1.03; viability at 48 h, 50 µM [26]: > 70%; MIC (Pseudomonas aeruginosa [29]): 1 µg/mL; MIC (Pseudomonas aeruginosa [30]): 1020 µg/mL
2 | NC[C@H]1O[C@H](O[C@H]2[C@H](O)[C@@H](O[C@H]3O[C@H](CO)[C@@H](O)[C@H](N)[C@H]3O)[C@H](N)C[C@@H]2N)[C@H](N)C[C@@H]1O [TOBRAMYCIN] | 0.5 (≈ 1.07 µM) | 128 (≈ 274 µM) | 8 (≈ 17.1 µM) | 8 (≈ 17.1 µM) | 0.5 (≈ 1.07 µM) | ≤ 0.25 | 1 (≈ 2.14 µM) | 8 (≈ 17.1 µM) | 2 (≈ 4.28 µM) | 0.5 (≈ 1.07 µM) | 128 (≈ 274 µM) | 0.5 (≈ 1.07 µM) | 128 (≈ 274 µM) | 16 (≈ 34.2 µM) | 256 (≈ 548 µM) | 1 (≈ 2.14 µM) | fractional inhibitory concentration index (FICI) (Pseudomonas aeruginosa [31]): 1.125; fractional inhibitory concentration index (FICI) (Pseudomonas aeruginosa [32]): 1; fractional inhibitory concentration index (FICI) (Pseudomonas aeruginosa [33]): 1.25; fractional inhibitory concentration index (FICI) (Pseudomonas aeruginosa [34]): 1.5; fractional inhibitory concentration index (FICI) (Pseudomonas aeruginosa [35]): <=1.5; fractional inhibitory concentration index (FICI) (Pseudomonas aeruginosa [36]): 1.5
